Experimental data published in patent US20110105515A1, “TARGETING THE ONCOPROTEIN NUCLEOPHOSMIN” (President and Fellows of Harvard College, priority 2007, published 2011).

Assays:
KM12 = KM12 (Colon Cancer), 48 hours, SRB
TK-10 = TK-10 (Renal Cancer), 48 hours, SRB
CCRF-CEM = CCRF-CEM (Leukemia), 48 hours, SRB
OVCAR-3 [1] = conditions: OVCAR-3 (Ovarian Cancer), 48 hours, SRB
BT-549 = assay: cells; conditions: Homo sapiens, BT-549, 48 h; for CC50: read-out: LC50
MDA-MB-468 = assay: cells; conditions: Homo sapiens, MDA-MB-468, 48 h; for CC50: read-out: LC50
HCT-15 = assay: cells; conditions: Homo sapiens, HCT-15, 48 h; for CC50: read-out: LC50
SK-MEL-28 = SK-MEL-28 (Melanoma), 48 hours, SRB
OVCAR-5 = OVCAR-5 (Ovarian Cancer), 48 hours, SRB
UACC62 = UACC62 (Melanoma), 48 hours, SRB
SNB-75 = SNB-75 (CNS Cancer), 48 hours, SRB
NCI-H23 [2] = assay: cells; conditions: Homo sapiens, NCI-H23, 48 h; for CC50: read-out: LC50
MDA-MB-231/ATCC = MDA-MB-231/ATCC (Breast Cancer), 48 hours, SRB
SK-OV-3 [3] = assay: cells; conditions: Homo sapiens, SK-OV-3, 48 h; for CC50: read-out: LC50
HOP-62 = HOP-62 (Non-Small Cell Lung Cancer), 48 hours, SRB
NCI-H23 [4] = conditions: NCI-H23 (Non-Small Cell Lung Cancer), 48 hours, SRB
EKVX = EKVX (Non-Small Cell Lung Cancer), 48 hours, SRB
SNB-19 = assay: cells; conditions: Homo sapiens, SNB-19, 48 h; for CC50: read-out: LC50
K-562 = K-562 (Leukemia), 48 hours, SRB
OVCAR-3 [5] = assay: cells; conditions: Homo sapiens, OVCAR-3, 48 h; for CC50: read-out: LC50
MALME-3M = MALME-3M (Melanoma), 48 hours, SRB
SF-268 = SF-268 (CNS Cancer), 48 hours, SRB
SK-OV-3 [6] = conditions: SK-OV-3 (Ovarian Cancer), 48 hours, SRB
SK-MEL-5 = SK-MEL-5 (Melanoma), 48 hours, SRB
ACHN = ACHN (Renal Cancer), 48 hours, SRB
RPMI-8226 = RPMI-8226 (Leukemia), 48 hours, SRB
A549/ATCC = A549/ATCC (Non-Small Cell Lung Cancer), 48 hours, SRB
HT29 = HT29 (Colon Cancer), 48 hours, SRB
A498 = A498 (Renal Cancer), 48 hours, SRB
NCI-H226 = NCI-H226 (Non-Small Cell Lung Cancer), 48 hours, SRB
IGROV1 = IGROV1 (Ovarian Cancer), 48 hours, SRB
SK-MEL-2 = SK-MEL-2 (Melanoma), 48 hours, SRB

| Compound | TGI (KM12) [nM] | TGI (TK-10) [nM] | TGI (CCRF-CEM) [nM] | TGI (OVCAR-3 [1]) [nM] | GI50 (BT-549) [nM] | CC50 (BT-549) [nM] | GI50 (MDA-MB-468) [nM] | CC50 (MDA-MB-468) [nM] | GI50 (HCT-15) [nM] | CC50 (HCT-15) [nM] | TGI (SK-MEL-28) [nM] | TGI (OVCAR-5) [nM] | TGI (UACC62) [nM] | TGI (SNB-75) [nM] | GI50 (NCI-H23 [2]) [nM] | CC50 (NCI-H23 [2]) [nM] | TGI (MDA-MB-231/ATCC) [nM] | GI50 (SK-OV-3 [3]) [nM] | CC50 (SK-OV-3 [3]) [nM] | TGI (HOP-62) [nM] | further results |
| --- | --- | --- | --- | --- | --- | --- | --- | --- | --- | --- | --- | --- | --- | --- | --- | --- | --- | --- | --- | --- | --- |
| Cc1cc(C)cc(-c2ccc3c(c2)[N+]([O-])=C2C3=C[C@@]34NC(=O)C5(CCCN5C3=O)CC4C2(C)C)c1 (stereo partly shown) [Biphenyl Analogue] | 740 | 955 | 421 | 395 | 95.3 | 1700 | 160 | 3030 | 146 | 710 | 1080 | 1700 | 471 | 757 | 206 | 3580 | 1050 | 300 | 3450 | 3320 | TGI (NCI-H23 [4]): 840 nM; TGI (EKVX): 1110 nM; GI50 (SNB-19): 238 nM; CC50 (SNB-19): 3090 nM; TGI (K-562): 358 nM; GI50 (OVCAR-3 [5]): 158 nM; CC50 (OVCAR-3 [5]): 986 nM; TGI (MALME-3M): 244 nM; TGI (SF-268): 767 nM; TGI (SK-OV-3 [6]): 1190 nM; TGI (SK-MEL-5): 324 nM; TGI (ACHN): 618 nM; TGI (RPMI-8226): 48.6 nM; TGI (A549/ATCC): 834 nM; TGI (HT29): >100000 nM; TGI (A498): 1320 nM; TGI (NCI-H226): 707 nM |
| [2H]On1c2c(c3ccc4c(c31)C=CC(C)(C)O4)C(OC([2H])([2H])[2H])[C@@]13NC(=O)C4(CCCN4C1=O)CC3C2(C)C (stereo partly shown) [Deuterated Methanol Adduct] | 2520 | 2350 | 704 | 1810 | 598 | 4690 | 292 | 6960 | 548 | 4230 | 1820 | 1910 | 1920 | 1270 | 995 | 5900 | 1830 | 1010 | 4650 | 7030 | TGI (IGROV1): 2040 nM; TGI (NCI-H23 [4]): 2430 nM; TGI (EKVX): 1970 nM; TGI (SK-MEL-2): 2280 nM; GI50 (SNB-19): 1110 nM; CC50 (SNB-19): 4810 nM; TGI (K-562): 3070 nM; GI50 (OVCAR-3 [5]): 616 nM; CC50 (OVCAR-3 [5]): 4270 nM; TGI (MALME-3M): 1560 nM; TGI (SF-268): 3010 nM; TGI (SK-OV-3 [6]): 2160 nM; TGI (SK-MEL-5): 2710 nM; TGI (ACHN): 2530 nM; TGI (RPMI-8226): 298 nM; TGI (A549/ATCC): 2990 nM; TGI (HT29): 3680 nM; TGI (A498): 2220 nM; TGI (NCI-H226): 1700 nM |
